This experiment has as its system HisA enzyme from Nicotiana Plumbaginifolia. Nature of the experiment: HisA enzyme activity assay (INT/PMS dye, absorbance at 530 nm). Format: biochemical. Particulars: partially purified recombinant enzyme expressed in E. coli BL21 (DE3); 0.2 M Triethanolamine pH 8.5, 30° C.; read-out: Km for substrate. The procedure: The HisA enzyme from Nicotiana Plumbaginifolia was partially purified and assayed as follows. A plasmid clone with the cDNA insert in the correct orientation relative to the T7 promoter was transformed into E. coli strain BL21 (DE3) (Studier et al. (1986) J. Mol. Biol. 189:113-130). Cultures are grown in LB medium carbenicillin ([…]) at 28° C. to an optical denisity of 0.44 at 600 nm. Each liter of LB/carbenicillin was inoculated with 20 mL of the overnight culture. These one liter cultures were incubated at 26° C. with agitation for 21 hours. HisA expression was induced as described above. The cells were harvested by centrifugation and frozen at −80° C.
Each gram of cell paste was resuspended in two milliliters of 20 mM Triethanolamine buffer at pH 8.3 containing Complete™ protease inhibitors (Boehringer Mannheim) and 1 mM EDTA. The cells were disrupted by three passes through a microfluidizer and the lysed cell debris was removed by centrifugation. The supernatant was treated with streptomycin sulfate which was added to a final concentration of 1%. […]
HisA enzyme activity was assayed essentially as described by Margolies et al., (1966) J. Biol. Chem. 241:3262-3269. […] Blank reactions containing either no enzyme or no substrate were also prepared to control for background absorbance. […] The absorbance at 530 nm was measured.

Structures are written as SMILES.

What is called Km is the substrate concentration at which the rate is half of its maximum. Take `NC(=O)c1ncn([C@@H]2O[C@H](COP(=O)(O)O)[C@@H](O)[C@H]2O)c1N=CN[C@@H]1O[C@H](COP(=O)(O)O)[C@@H](O)[C@H]1O` [5′ Profar, N1-[(5′-phospho-b-D-ribosyl)formimino]-5-aminoimidazole-4-carboxamide ribonucleotide]: the Km turned out to be 200 µM.
